From patent US6426355B1, “Heterocyclic carboxamide-containing thiourea inhibitors of herpes viruses containing phenylenediamine group” (American Home Products, priority 1998, dated 2002)
Values after ≈ are worked out from the molar mass of the structure shown.

Key:
[1] = tested on: HCMV recombinant mutant virus (RV145); assay: HCMV microtiter plate assay (beta-glucuronidase reporter); type: cell-based, Human Cytomegalovirus; settings: for IC50: Human betaherpesvirus 5, Fibroblast, read-out: IC50 (ug/ml) HCMV; for IC50 (ug/ml) HCMV: HCMV in human foreskin fibroblasts
Excerpt: Ninety-six well plate cultures of human foreskin fibroblasts are infected in the presence of inhibitor compound with a HCMV recombinant mutant virus whose genome contains the prokaryotic beta-glucuronidase gene (Jefferson, R. A., S. M. Burgess, and D. Hirsh. 1986. Beta-glucuronidase from Escherichia coli as a gene fusion marker. Proc. Natl. Acad. Sci. USA 83:8447-8451) whose expression is controlled by a viral promoter. An example of such a virus is RV145 (Jones, T. R., V. P. Muzithras, and Y. Gluzman. 1991. Replacement mutagenesis of the human cytomegalovirus genome: US10 and US11 gene products are nonessential. J. Virol. 65:5860-5872). Since it is under the control of a viral promoter, beta-glucuronidase expression is an indirect indicator of growth and replication of HCMV in this assay. At 96 hours post-infection, the infected cell lysates are prepared (using 50 mM sodium phosphate [pH7.0] containing 0.1% Triton X-100 and 0.1% sarkosyl) and assayed for beta-glucuronidase activity using a substrate for the enzyme which when cleaved yields either a product which can be measured colorimetrically in a spectrophotometer or fluorescently in a microfluorimeter. Examples of such substrates are p-nitrophenyl-beta-D-glucuronide and methylumbelliferylglucuronide, respectively. The presence of an antiviral compound is indicated by the reduced expression of the HCMV genome resident beta-glucuronidase gene, compared to the absence of inhibitor. […] Data from this assay generated using varying amounts of inhibitor compound is also used to estimate the IC50 of an inhibitor compound.

VZV strain Ellen = assay: VZV Antiviral (ELISA) assay; type: cell-based; settings: for inhibition at 10 µg/mL: Human alphaherpesvirus 3, read-out: % inhibition 10 ug/ml VZV, at 10 ug/ml, VZV strain Ellen in HFF cells; for IC50 (ug/ml) VZV: VZV strain Ellen in HFF cells
Experimental: For the generation of stock VZV to be used in the assay, VZV strain Ellen (ATCC #VR-1367) is used to infect human foreskin fibroblast (HFF) cells at low multiplicity (less than 0.1) and incubated overnight at 37° C. in 5% CO2. After the overnight incubation, the mixture of uninfected and VZV-infected HFF infected cells are then harvested and added to each well of 96-well plates (3.5×10^4 cells in 100 μl DMEM supplemented with 2% FBS) which contain test compound or the reference standard drug control (in 100 μl DMEM supplemented with 2% FBS per well). These cells are incubated for three days at 37° C. in 5% CO2, then fixed for ELISA assay. The primary antibody is murine anti-VZV glycoprotein II monoclonal antibody (Applied Biosystems, Inc. #13-145-100) and the secondary antibody is goat anti-mouse IgG linked to β-galactosidase. Thus the extent of viral replication is determined by assessing β-galactosidase activity by quantifying the generation of the 4-methyl umbelliferone fluorescent cleavage product after addition of the methyl umbelliferyl-β-D-galactoside (Sigma #M1633) substrate on a microfluorimeter (365 nm for excitation and 450 nm for emission). Antiviral activity (IC50) of the test compound is determined by comparing the flourescence obtained in absence of compound to that obtained in the presence of compound.

Compound | IC50 [1] | inhibition at 10 µg/mL (VZV strain Ellen) | IC50 (ug/ml) HCMV [1] | IC50 (ug/ml) VZV (VZV strain Ellen)
CC(=O)Nc1ccc(NC(=S)Nc2cc(Cl)cc(Cl)c2)cc1 [Example 983, N-{4-[3-(3,5-Dichloro-phenyl)-thioureido]-phenyl}-acetamide] | 0.12 µg/mL (≈ 0.339 µM) | 52% | – | –
CN(C)c1cc(CNC(=S)Nc2ccc(NC(=O)c3csnn3)cc2)cc(C(F)(F)F)c1 [Example 618] | – | – | 0.0016 µg/mL (≈ 0.00333 µM) | >10 µg/mL
CCC(NC(=S)Nc1ccc(NC(=O)c2csnn2)cc1)c1cc(C(F)(F)F)cc(C(F)(F)F)c1 (centres unmarked) [Example 857] | – | – | 0.0006 µg/mL (≈ 0.00112 µM) | >7.5 µg/mL
O=C(Nc1ccc(NC(=S)NCc2cc(F)cc(F)c2)cc1)c1ccco1 [Example 579] | – | – | 0.05 µg/mL (≈ 0.129 µM) | 6 µg/mL (≈ 15.5 µM)
O=C(Nc1ccc(NC(=S)NCc2cc(F)cc(F)c2)cc1)c1csnn1 [Example 581] | – | – | 0.01 µg/mL (≈ 0.0247 µM) | >10 µg/mL
O=C(Nc1ccc(NC(=S)NCc2cc(F)cc(C(F)(F)F)c2)cc1)c1ccco1 [Example 585] | – | – | 0.015 µg/mL (≈ 0.0343 µM) | >10 µg/mL
O=C(Nc1ccc(NC(=S)NCCCc2ccccc2)cc1)c1csnn1 [Example 613] | – | – | 0.011 µg/mL (≈ 0.0277 µM) | >10 µg/mL
CC(NC(=S)Nc1ccc(NC(=O)c2cscn2)cc1)c1cc(C(F)(F)F)ccc1F (centres unmarked) [Example 833] | – | – | 0.0019 µg/mL (≈ 0.00406 µM) | >7.5 µg/mL
CC(NC(=S)Nc1ccc(NC(=O)c2cscn2)cc1)c1ccc(Cl)c(Cl)c1 (centres unmarked) [Example 848] | – | – | 0.002 µg/mL (≈ 0.00443 µM) | 0.19 µg/mL (≈ 0.421 µM)
O=C(Nc1ccc(NC(=S)NCCCc2ccccc2)cc1)c1ccco1 [Example 612] | – | – | 0.049 µg/mL (≈ 0.129 µM) | 1 µg/mL (≈ 2.64 µM)
CC(NC(=S)Nc1ccc(NC(=O)c2cscn2)cc1)c1cccc(Br)c1 (centres unmarked) [Example 844] | – | – | 0.0008 µg/mL (≈ 0.00173 µM) | 1.03 µg/mL (≈ 2.23 µM)
C[C@H](NC(=S)Nc1ccc(NC(=O)c2csnn2)cc1)c1ccc(Br)cc1 [Example 815] | – | – | 0.0095 µg/mL (≈ 0.0205 µM) | 0.27 µg/mL (≈ 0.584 µM)
O=C(Nc1ccc(NC(=S)NCc2cc(Cl)cc(Cl)c2)cc1)c1ccco1 [Example 582] | – | – | 0.01 µg/mL (≈ 0.0238 µM) | 8 µg/mL (≈ 19 µM)
CN(C)c1cc(NC(=S)Nc2ccc(NC(=O)c3csnn3)cc2)cc(C(F)(F)F)c1 [Example 571] | – | – | 0.013 µg/mL (≈ 0.0279 µM) | >10 µg/mL
CC(NC(=S)Nc1ccc(NC(=O)c2csnn2)cc1)c1cc(C(F)(F)F)cc(C(F)(F)F)c1 (centres unmarked) [Example 818] | – | – | 0.0016 µg/mL (≈ 0.00308 µM) | >7.5 µg/mL
CC(NC(=S)Nc1ccc(NC(=O)c2cscn2)cc1)c1ccc(Cl)cc1Cl (centres unmarked) [Example 836] | – | – | 0.004 µg/mL (≈ 0.00886 µM) | >7.5 µg/mL
O=C(Nc1ccc(NC(=S)NCc2cc(F)cc(C(F)(F)F)c2)cc1)c1csnn1 [Example 587] | – | – | 0.005 µg/mL (≈ 0.011 µM) | >10 µg/mL
CC(=O)Nc1ccc(NC(=S)Nc2ccc(C(C)O)c(Cl)c2)cc1 (centres unmarked) [Example 913, N-(4-{3-[3-Chloro-4-(1-hydroxy-ethyl)-phenyl]-thioureido}-phenyl)-acetamide] | 0.056 µg/mL (≈ 0.154 µM) | 15% | – | –
CC(NC(=S)Nc1ccc(NC(=O)c2cscn2)cc1)c1cc(F)cc(C(F)(F)F)c1 (centres unmarked) [Example 831] | – | – | 0.0011 µg/mL (≈ 0.00235 µM) | >7.5 µg/mL
CCC(NC(=S)Nc1ccc(NC(=O)c2cscn2)cc1)c1cc(C(F)(F)F)cc(C(F)(F)F)c1 (centres unmarked) [Example 865] | – | – | 0.0001 µg/mL (≈ 0.000188 µM) | >7.5 µg/mL
C[C@H](NC(=S)Nc1ccc(NC(=O)c2csnn2)cc1)c1ccc(Cl)cc1 [Example 820] | – | – | 0.006 µg/mL (≈ 0.0144 µM) | >7.5 µg/mL
CC(NC(=S)Nc1ccc(NC(=O)c2cscn2)cc1)c1ccc(Cl)cc1F (centres unmarked) [Example 851] | – | – | 0.017 µg/mL (≈ 0.0391 µM) | 1.43 µg/mL (≈ 3.29 µM)
CC(NC(=S)Nc1ccc(NC(=O)c2cscn2)cc1)c1ccc(Br)cc1F (centres unmarked) [Example 841] | – | – | 0.0011 µg/mL (≈ 0.00229 µM) | 0.77 µg/mL (≈ 1.61 µM)
CC(NC(=S)Nc1ccc(NC(=O)c2cscn2)cc1)c1ccc(F)cc1C(F)(F)F (centres unmarked) [Example 852] | – | – | 0.005 µg/mL (≈ 0.0107 µM) | >7.5 µg/mL

Compound | IC50 [1] | inhibition at 10 µg/mL (VZV strain Ellen) | IC50 (ug/ml) HCMV [1] | IC50 (ug/ml) VZV (VZV strain Ellen)
O=C(Nc1ccc(NC(=S)NCc2ccccc2Cl)cc1)c1csnn1 [Example 729] | – | – | 0.02 µg/mL (≈ 0.0495 µM) | –
C[C@@H](NC(=S)Nc1ccc(NC(=O)c2cscn2)cc1)c1cc(C(F)(F)F)cc(C(F)(F)F)c1 [Example 847] | – | – | 0.0008 µg/mL (≈ 0.00154 µM) | >7.5 µg/mL
CC(NC(=S)Nc1ccc(NC(=O)c2cscn2)cc1)c1ccc(F)cc1F (centres unmarked) [Example 846] | – | – | 0.0130 µg/mL (≈ 0.0311 µM) | 1.04 µg/mL (≈ 2.49 µM)
O=C(Nc1ccc(NC(=S)NCc2cc(C(F)(F)F)cc(C(F)(F)F)c2)cc1)c1c[nH]cn1 [Example 862] | – | – | 0.1 µg/mL (≈ 0.205 µM) | >7.5 µg/mL
O=C(Nc1ccc(NC(=S)NCc2cccc(Cl)c2)cc1)c1csnn1 [Example 572] | – | – | 0.0078 µg/mL (≈ 0.0193 µM) | >10 µg/mL
CC(C)(NC(=S)Nc1ccc(NC(=O)c2csnn2)cc1)c1cc(C(F)(F)F)cc(C(F)(F)F)c1 [Example 861] | – | – | 0.002 µg/mL (≈ 0.00375 µM) | >7.5 µg/mL
Cc1cccc(C(C)NC(=S)Nc2ccc(NC(=O)c3cscn3)cc2)c1 (centres unmarked) [Example 837] | – | – | 0.03 µg/mL (≈ 0.0757 µM) | 3.60 µg/mL (≈ 9.08 µM)
C[C@H](NC(=S)Nc1ccc(NC(=O)c2csnn2)cc1)c1cc(C(F)(F)F)cc(C(F)(F)F)c1 [Example 825] | – | – | 0.0013 µg/mL (≈ 0.0025 µM) | >7.5 µg/mL
CC(NC(=S)Nc1ccc(NC(=O)c2cscn2)cc1)c1ccc(F)c(F)c1 (centres unmarked) [Example 840] | – | – | 0.0015 µg/mL (≈ 0.00358 µM) | 0.14 µg/mL (≈ 0.335 µM)
O=C(Nc1ccc(NC(=S)NCCc2cccc(F)c2)cc1)c1ccco1 [Example 573] | – | – | 0.05 µg/mL (≈ 0.13 µM) | >10 µg/mL
CC(NC(=S)Nc1ccc(NC(=O)c2cscn2)cc1)c1ccccc1C(F)(F)F (centres unmarked) [Example 845] | – | – | 0.0060 µg/mL (≈ 0.0133 µM) | >7.5 µg/mL
CC(NC(=S)Nc1ccc(NC(=O)c2cscn2)cc1)c1ccccc1Br (centres unmarked) [Example 843] | – | – | 0.0031 µg/mL (≈ 0.00672 µM) | >7.5 µg/mL
CC(NC(=S)Nc1ccc(NC(=O)c2cscn2)cc1)c1ccc(Cl)c(F)c1 (centres unmarked) [Example 853] | – | – | 0.004 µg/mL (≈ 0.0092 µM) | 0.62 µg/mL (≈ 1.43 µM)
CC(NC(=S)Nc1ccc(NC(=O)c2cscn2)cc1)c1cccc(F)c1 (centres unmarked) [Example 842] | – | – | 0.02 µg/mL (≈ 0.0499 µM) | 1.55 µg/mL (≈ 3.87 µM)
Cn1cnc(C(=O)Nc2ccc(NC(=S)NCc3cc(C(F)(F)F)cc(C(F)(F)F)c3)cc2)c1 [Example 864] | – | – | 0.5 µg/mL (≈ 0.997 µM) | >7.5 µg/mL
O=C(Nc1ccc(NC(=S)NCCOc2ccccc2F)cc1)c1csnn1 [Example 735] | – | – | 0.022 µg/mL (≈ 0.0527 µM) | –
CC(NC(=S)Nc1ccc(NC(=O)c2cscn2)cc1)c1ccc(F)cc1Br (centres unmarked) [Example 854] | – | – | 0.02 µg/mL (≈ 0.0417 µM) | –
O=C(Nc1ccc(NC(=S)NCCOc2cccc(F)c2)cc1)c1csnn1 [Example 736] | – | – | 0.012 µg/mL (≈ 0.0287 µM) | –
O=C(Nc1ccc(NC(=S)NCCOc2ccccc2Cl)cc1)c1csnn1 [Example 733] | – | – | 0.018 µg/mL (≈ 0.0415 µM) | –
O=C(Nc1ccc(NC(=S)NCc2cccc(F)c2)cc1)c1csnn1 [Example 732] | – | – | 0.022 µg/mL (≈ 0.0568 µM) | –
O=C(Nc1ccc(NC(=S)Nc2ccc(F)cc2)cc1)c1csnn1 [Example 740] | – | – | 0.1 µg/mL (≈ 0.268 µM) | –
O=C(Nc1ccc(NC(=S)NCc2ccccc2F)cc1)c1csnn1 [Example 730] | – | – | 0.033 µg/mL (≈ 0.0852 µM) | –
CC(NC(=S)Nc1ccc(NC(=O)c2cscn2)cc1)c1ccc(Br)c(Br)c1 (centres unmarked) [Example 855] | – | – | 0.02 µg/mL (≈ 0.037 µM) | –
CC(NC(=S)Nc1ccc(NC(=O)c2cscn2)cc1)c1ccc(F)c(Cl)c1 (centres unmarked) [Example 856] | – | – | 0.02 µg/mL (≈ 0.046 µM) | –
